Experimental data: ChEMBL document CHEMBL1136475, “Synthesis and analgesic activity of hydrochlorides and quaternary ammoniums of epibatidine incorporated with amino acid ester” (Bioorg Med Chem Lett, 2003)

Experiments:
[1] = biological target: Neuronal acetylcholine receptor; assay: Binding affinity towards nicotinic acetylcholine receptor (nAChR); type: protein-complex assay
[2] = system: Mus musculus; assay: In vivo analgesic activity using acetic acid writhing test in mice at a dose of 20 mg/kg by sc administration; type: functional; conditions: route subcutaneous
[3] = system: Mus musculus; assay: In vivo analgesic activity using acetic acid writhing test in mice at a dose of 10 mg/kg by sc administration; type: functional; conditions: route subcutaneous
[4] = Toxicity in rats was determined by sc administration at a dose of 10 mg/kg; type: organism-based; design: dose 10 mg/kg, route subcutaneous; conditions: rat, in vivo, read-out: Rate of death
[5] = system: Mus musculus; assay: In vivo analgesic activity using acetic acid writhing test in mice at a dose of 5 mg/kg by sc administration; type: functional; conditions: route subcutaneous
[6] = system: Mus musculus; assay: In vivo analgesic activity using acetic acid writhing test in mice at a dose of 1 mg/kg by sc administration; type: functional; conditions: route subcutaneous
[7] = Toxicity in rats was determined by sc administration at a dose of 1 mg/kg; type: organism-based; design: dose 1 mg/kg, route subcutaneous; conditions: rat, in vivo, read-out: Rate of death
[8] = Toxicity in rats was determined by sc administration at a dose of 5 mg/kg; type: organism-based; design: dose 5 mg/kg, route subcutaneous; conditions: rat, in vivo, read-out: Rate of death
[9] = Toxicity in rats was determined by sc administration at a dose of 20 mg/kg; type: organism-based; design: dose 20 mg/kg, route subcutaneous; conditions: rat, in vivo, read-out: Rate of death

SMILES: c1cncc(CN2C3CCC2CC3)c1
- Ki [1]: 98 nM

SMILES: CCOC(=O)CCC(NC(=O)C1C(c2ccc(Cl)nc2)C2CCC1[N+]2(C)Cc1ccccc1)C(=O)OCC.[I-] (configuration not stated)
- Inhibitory rate [2]: 1%
- Inhibitory rate [3]: 99.3%
- mortality [4]: 80%

SMILES: CCOC(=O)C1CSCN1C(=O)C1C(c2ccc(Cl)nc2)C2CCC1[N+]2(C)Cc1ccccc1.[I-] (configuration not stated)
- Inhibitory rate [5]: 49.8%
- Inhibitory rate [6]: 9.1%
- mortality [7]: 0%
- mortality [8]: 0%

SMILES: CCOC(=O)CNC(=O)C1C(c2ccc(Cl)nc2)C2CCC1[N+]2(C)Cc1ccccc1.[I-] (configuration not stated)
- Inhibitory rate [2]: 66.6%
- mortality [9]: 0%

SMILES: C[N+]1(Cc2ccccc2)CCN(C(=O)CCCCCCC(=O)N2CC[N+](C)(Cc3ccccc3)CC2)CC1.[Br-].[Br-]
- Inhibitory rate [2]: 80.3%

SMILES: CCOC(=O)CCC(NC(=O)C1C(c2ccc(Cl)nc2)C2CCC1N2Cc1ccccc1)C(=O)OCC.Cl (configuration not stated)
- Inhibitory rate [2]: 27.1%
- mortality [9]: 0%

SMILES: CCOC(=O)CNC(=O)C1C(c2ccc(Cl)nc2)C2CCC1N2Cc1ccccc1.Cl (configuration not stated)
- Inhibitory rate [2]: 26.1%
- mortality [9]: 0%

SMILES: CCOC(=O)C1CSCN1C(=O)C1C(c2ccc(Cl)nc2)C2CCC1N2Cc1ccccc1.Cl (configuration not stated)
- Inhibitory rate [2]: 12.3%
- mortality [9]: 0%
